# Tests used:
# [1] = Melting temperature (Tm) of soluble CD4 domains, Prometheus System; type: physicochemical; conditions: soluble CD4 domain with C-terminal 6xHis tag
# Description: The best performing variants (SEQ ID NOs: 5-21) were fused with 6×His tag at their C-termini, expressed and purified from mammalian cells using methods as described in Example 1, except that purification was via a Ni-NTA resin (Cytiva, Marlborough MA) instead of Mabselect SuRe column, with standard protocol from the vendor.
# These purified CD4 D1 variants (with C-terminal 6xHis tag) were then evaluated to determine their melting temperature (Tm, using Prometheus System, NanoTemper, München Germany), which indicates thermal stability, as well as their anti-viral activity against HIV-1 pseudotyped virus (see Example 2 above for methods using ACTOne cells).
# [2] = test system: panel of HIV-1 envelopes (pseudotyped HIV-1 virus); experiment: PSV assay (ACTOne cells), HIV-1 envelopes; type: cell-based
# Description: (§1) The anti-viral activity of the antigen binding proteins was measured in a pseudotyped virus (PSV) assay.
# (§2) PSV was produced in HEK-293T cells (ATCC, Manassas VA) by co-transfecting expression plasmids encoding the HIV-1 gp160 envelope gene and an HIV-1 backbone plasmid using TRANSIT-2020 transfection reagent (Mirus Bio, Madison WI). A panel of HIV-1 PSVs expressing different gp160 envelope trimers was generated to evaluate the effectiveness of the antigen binding proteins of the invention against a wide spectrum of HIV-1 strains.
# (§3) The genome of PSV used in this assay contains a luciferase gene that is expressed once the virus enters cells. Accordingly, the luminescence signal (after adding a substrate of luciferase) can be used to determine the level of viral infection.
# (§4) The 50% tissue culture infectious dose (TCID) of a single thawed aliquot of each batch of PSV was determined in ACTOne cells. The ACTOne cell-line used in this assay was derived in-house from a genetically engineered 293T cell clone that expresses CD4, CXCR4, and CCR5. Cells were maintained in growth medium composed of Dulbecco's modified Eagle's medium (DMEM, Life Technologies) at 37° C. in a humidified 5% CO2-95% air environment. Cell monolayers were split by treatment with Trypsin-EDTA (0.05%).
# (§5) To run the anti-viral assay, ACTOne cells were detached by treating the cell culture flask with trypsin (trypsinization) and resuspended in growth medium containing 2% of DMSO to a density of 2.5×10^5 cells/ml. One hundred μl of such cells was added to 10 μl of antigen binding protein pre-loaded in a 96-well plate. Ninety μl of PSV was then added to each well. The assay plates were incubated at 37° C. in a humidified incubator at 5% CO2 level. Plates were developed after 72 hours of incubation by adding 50 μl of BRIGHTGLO luciferase reagent (Promega, Madison WI) to each well, and transferring the plates to an ENVISION multilabel plate reader (PerkinElmer, Waltham MA) to measure the luminescence and determine the level of virus that had infected the cells. The higher the luminescence signal, the higher the level of infection.
# [3] = test system: HIV-2 Env-pseudotypes (HIV-2-AID, HIV-2-ATM88, HIV-2-HCC-01); experiment: PSV assay (ACTOne cells), HIV-2 envelopes; type: cell-based
# Description: as §1, §2, §3, §4, §5
# HIV-2 differs from HIV-1 in that it originates from the transmission of simian immunodeficiency virus (SIV) from sooty mangabeys (SIVsmm) to human (Gao et al, J Virol. 1994; 68 (11): 7433-7447) whilst HIV-1 stems from the transmission from chimpanzees and western gorillas (HIV-1 group M and O, respectively). HIV-2 can also cause AIDS but is far less pathogenic and wide-spread than HIV-1 (de Silva et al, Trends Microbiol. 2008; 16 (12): 588-595; Da Silva et al, AIDS. 2008; 22 (10): 1195-1202). Though also using CD4 for infection (Sattentau et al, AIDS. 1988; 2 (2): 101-105), HIV-2 shares only 40% identity in the gp160 amino acid sequence with HIV-1, and is therefore less sensitive or insensitive to HIV-1 envelope-directed bnAbs (Kong et al, JVI 2012; 86 (2): 947-960).
# [4] = test system: NL4-3 (NLRepRluc replicating reporter virus); experiment: Replicating virus assay using NLRepRluc virus (NL4-3) in MT-2 cells; type: cell-based, HIV-1; conditions: NL4-3, replicating virus assay
# Source text: All clinical and laboratory isolates were originally obtained from the NIH AIDS Reagent Program (currently NIH HIV Reagent Program, https:hivreagentprogram.org/). The proviral clone of NL4-3 (obtained from NIH) was used to make the replicating reporter virus NLRepRluc, in which a section of the nef gene from the proviral clone of NL4-3 was replaced with the Renilla luciferase gene. Virus was produced through transfection of HEK293T cells using Lipofectamine Plus (Invitrogen, Carlsbad, CA), according to the manufacturer's instructions. […]
# The NLRepRluc was used to infect MT-2 cells at a multiplicity of 0.01 for 1 hour before adding the proteins to the 96-well plates. […] After 4 days of incubation, cells were processed and quantitated for virus growth by the amount of expressed luciferase. Luciferase was quantitated using the ENDUREN substrate from Promega (Madison, WI) according to the manufacturer's instructions. Luciferase activity was measured immediately on an ENVISION multilabel plate reader (PerkinElmer, Waltham MA). EC50 values were calculated by comparing the amount of luciferase produced in the presence of antigen binding protein compared to wells where no antigen binding protein (DMSO control) was added. […]
# [5] = test system: HIV NL4-3 virus; experiment: In vitro resistance barrier (viral breakthrough in MT2 cells); type: cell-based, HIV-1; conditions: HIV NL4-3 in MT2 cells
# Description: To assess the resistance barrier of the bispecific molecules, we examined the relative rates at which HIV NL4-3 virus can escape inhibition by a panel of antibodies versus a DMSO control.
# MT2 cells (2.0×10^5/well in RPMI 1640+[…] penicillin and streptomycin+10 mM HEPES buffer pH 7.55+2 mM L-glutamine. +0.2% DMSO) were pre-infected at an MOI (multiplicity of infection) of 0.005 for 2.5 hours and then pelleted to remove unbound virus particles. One mL of infected cells was added to each well of a 24 well plate.
# Every 3-4 days images of the wells were captured and 1 ml of each well is removed and replaced by fresh preparations of each condition. This process was continued until there was viral breakthrough (observed cytopathic effect (CPE)>80%) or until there was a confirmed elimination of infected cells (via challenged elimination). When either condition was achieved, the sample was collected as pellet and supernatant (via centrifugation) and stored at −80° C. until genotypic analysis was performed to confirm the presence of resistance mutations. The days from infection to breakthrough were used to estimate the resistance barrier of a certain molecule. The longer it takes the virus to develop CPE, which indicates resistance, the higher the resistance barrier is.
# [6] = envelope CAP45.2.00.G3, PSV assay
# [7] = envelope X1632_S2_B10, PSV assay
# [8] = envelope HIV-2-AID, PSV assay, ACTOne cells
# [9] = envelope HIV-2-ATM88, PSV assay
# [10] = envelope HIV-2-HCC-01, PSV assay
substance,measurement,setting,value
"D1m-K8C-G99C: soluble CD4 D1 variant of mD1.22 with K8C and G99C, SEQ ID NO:11, 6xHis tagged [Molecule D1m-K8C-G99C]",Tm (° C.),[1],88.8 °C
"D1m-K21C-G65C: soluble CD4 D1 variant of mD1.22 with K21C and G65C, SEQ ID NO:15, 6xHis tagged",Tm (° C.),[1],80.1 °C
"D1m-E91Q: soluble CD4 D1 variant of mD1.22 with E91Q, SEQ ID NO:6, 6xHis tagged [Molecule D1m-E91Q]",Tm (° C.),[1],72.4 °C
"D1m-E91H: soluble CD4 D1 variant of mD1.22 with E91H, SEQ ID NO:7, 6xHis tagged [Molecule D1m-E91H]",Tm (° C.),[1],72.6 °C
"D1mD2_His: soluble CD4 D1D2 variant mD1.22-D2 (SEQ ID NO:2) plus C-terminal 6xHis tag [Molecule D1mD2_His, reference compound]",IC50,"[2]; envelope 42368, PSV assay",7.29 nM
same,IC50,"[2]; envelope BJOX2000, PSV assay",33.4 nM
same,IC50,[2]; [6],> 500 nM
same,IC50,"[2]; envelope CH119, PSV assay",120 nM
same,IC50,"[2]; envelope HXB2, PSV assay",0.07 nM
same,IC50,"[2]; envelope LAI, PSV assay",5.41 nM
same,IC50,"[2]; envelope NL4-3, PSV assay",0.74 nM
same,IC50,"[2]; envelope T278.50, PSV assay",16 nM
same,IC50,"[2]; envelope TRO11, PSV assay",17.3 nM
same,IC50,[2]; [7],14.9 nM
"D1m-H27C-G38C: soluble CD4 D1 variant of mD1.22 with H27C and G38C, SEQ ID NO:14, 6xHis tagged",Tm (° C.),[1],90.1 °C
"D1m-N52W: soluble CD4 D1 variant of mD1.22 with N52W, SEQ ID NO:9, 6xHis tagged [Molecule D1m-N52W]",Tm (° C.),[1],72 °C
"D1m-K8I: soluble CD4 D1 variant of mD1.22 with K8I, SEQ ID NO:10, 6xHis tagged [Molecule D1m-K8I]",Tm (° C.),[1],75.9 °C
"D1m-K8V: soluble CD4 D1 variant of mD1.22 with K8V, SEQ ID NO:5, 6xHis tagged [Molecule D1m-K8V]",Tm (° C.),[1],77.1 °C
"D1m-K8C-G99C_Fc: CD4 D1m-K8C-G99C domain fused to human Fc, SEQ ID NO:158; CD4 control",IC50,"[2]; envelope 93UG065, PSV assay",143 nM
same,IC50,"[2]; envelope 246F3, PSV assay",4.28 nM
same,IC50,"[2]; envelope 0260.v5.c36, PSV assay",119 nM
same,IC50,"[2]; envelope 398F1, PSV assay",90.5 nM
same,IC50,"[2]; envelope 928_28, PSV assay",0.77 nM
same,IC50,[2]; envelope 3326_V4_C3,> 500 nM
same,IC50,"[2]; envelope 3326_V4_C3, PSV assay",> 500 nM
same,IC50,[2]; envelope 3468_V1_C12,64.2 nM
same,IC50,"[2]; envelope 3468_V1_C12, PSV assay",64.2 nM
same,IC50,[2]; envelope 3637_V5_C3,> 500 nM
same,IC50,"[2]; envelope 3637_V5_C3, PSV assay",> 500 nM
same,IC50,"[2]; envelope 6471_V1_C16, PSV assay",5.07 nM
same,IC50,"[2]; envelope 25710, PSV assay",1.32 nM
same,IC50,[2]; envelope 42368,1.58 nM
same,IC50,"[2]; envelope 42368, PSV assay",1.58 nM
same,IC50,"[2]; envelope 620345_C1, PSV assay",99.3 nM
same,IC50,"[2]; envelope BJOX2000, PSV assay",2.34 nM
same,IC50,[2]; envelope CAP45.2.00.G3,20.5 nM
same,IC50,[2]; [6],20.5 nM
same,IC50,[2]; envelope CC1/85,1.98 nM
same,IC50,"[2]; envelope CC1/85, PSV assay",1.98 nM
same,IC50,"[2]; envelope CE0217, PSV assay",2.53 nM
same,IC50,"[2]; envelope CE1176, PSV assay",4.22 nM
same,IC50,"[2]; envelope CH119, PSV assay",3.25 nM
same,IC50,"[2]; envelope CNE8, PSV assay",347 nM
same,IC50,"[2]; envelope CNE55, PSV assay",41.8 nM
same,IC50,"[2]; envelope JR-CSF, PSV assay",5.47 nM
same,IC50,"[2]; envelope JRFL, PSV assay",1.12 nM
same,IC50,[2]; envelope Q461_E2,11.8 nM
same,IC50,"[2]; envelope Q461_E2, PSV assay",11.8 nM
same,IC50,[2]; envelope T278.50,1.43 nM
same,IC50,"[2]; envelope T278.50, PSV assay",1.43 nM
same,IC50,"[2]; envelope TH976_17, PSV assay",39 nM
same,IC50,"[2]; envelope TRO11, PSV assay",147 nM
same,IC50,"[2]; envelope X1632, PSV assay",1.82 nM
same,IC50,[2]; envelope X2088.C9,9.2 nM
same,IC50,"[2]; envelope X2088.C9, PSV assay",9.2 nM
same,IC50,"[2]; envelope X2278, PSV assay",44.6 nM
same,IC50,"[2]; envelope YU-2, PSV assay",0.2 nM
same,IC50,[2]; envelope ZM106.9,15.1 nM
same,IC50,"[2]; envelope ZM106.9, PSV assay",15.1 nM
same,IC50,[3]; [8],24.4 nM
same,IC50,[3]; [9],2.72 nM
same,IC50,"[3]; envelope HIV-2-HCC-01, ACTOne cells",> 300 nM
same,IC50,[3]; [10],> 300 nM
"D1m-E87G: soluble CD4 D1 variant of mD1.22 with E87G, SEQ ID NO:8, 6xHis tagged [Molecule D1m-E87G]",Tm (° C.),[1],71.9 °C
"D1m_His: soluble human CD4 D1 variant mD1.22 (SEQ ID NO:4) plus C-terminal 6xHis tag [Molecule D1m_His, reference compound]",IC50,"[2]; envelope 42368, PSV assay",4.32 nM
same,IC50,"[2]; envelope BJOX2000, PSV assay",70.9 nM
same,IC50,[2]; [6],131 nM
same,IC50,"[2]; envelope CC1/85, PSV assay",7.02 nM
same,IC50,"[2]; envelope CH119, PSV assay",90.7 nM
same,IC50,"[2]; envelope LAI, PSV assay",8.79 nM
same,IC50,"[2]; envelope T278.50, PSV assay",3.99 nM
same,IC50,"[2]; envelope TRO11, PSV assay",68.4 nM
same,IC50,[2]; [7],16.2 nM
same,IC50,"[2]; envelope ZM106.9, PSV assay",26 nM
same,IC50,[3]; [8],104 nM
same,IC50,[3]; [9],3.93 nM
same,IC50,[3]; [10],> 500 nM
same,Tm (° C.),[1],68.2 °C
same,EC50,[4],0.23 nM
same,Average days before CPE,[5]; group 20x EC50,4 days
same,Average days before CPE,[5]; group 30x EC50,5 days
same,Average days before CPE,[5]; group 40x EC50,7 days
"D1m-T11C-K72C: soluble CD4 D1 variant of mD1.22 with T11C and K72C, SEQ ID NO:12, 6xHis tagged",Tm (° C.),[1],79.9 °C
"D1m-E13C-I70C: soluble CD4 D1 variant of mD1.22 with E13C and I70C, SEQ ID NO:13, 6xHis tagged",Tm (° C.),[1],78.8 °C

# Source: patent US12583911B2, “Human immunodeficiency virus GP120 binding proteins” (ViiV Healthcare UK (No.5) Limited, priority 2022, dated 2026)
